Assay results taken from patent US20260207641A1, “COMBINATION THERAPY FOR CANCER USING ROS-ACTIVATED PRODRUGS AND ROS-AMPLIFYING THERAPEUTICS” (UWM Research Foundation, Inc., priority 2023, published 2026).
“And” between values parts separate entries of the source, which are not always exact repeats. Equal entries are not always repeated. Where two headings read alike, the source gives them in different places.

How the values were obtained:
[1] = tested on: MDA-MB-468 cells; conditions: cited from earlier work
[2] = tested on: MDA-MB-468 cells; assay: Cytotoxicity dose response (CellTiter-Glo, 48 h); format: cell-based, human
[3] = tested on: MCF 10A (normal cells); assay: Cytotoxicity dose response (CellTiter-Glo, 48 h); format: cell-based, human
[4] = tested on: extracellular H2O2 in U-87 MG cells; assay: Extracellular H2O2 measurement (Amplex Red assay); format: cell-based; conditions: U-87 MG at maximum safe ascorbic acid dose, 48 h
[5] = tested on: intracellular H2O2 in MDA-MB-468 cells; assay: Intracellular H2O2 measurement (AbGreen indicator); format: cell-based, human; conditions: MDA-MB-468 under ascorbic acid treatment, 48 h
[6] = tested on: MDA-MB-468 cells; format: cell-based, human
[7] = tested on: MDA-MB-436 cells; assay: cells; format: cell-based, human
[8] = tested on: U-87 MG cells; assay: cells; format: cell-based
[9] = tested on: U-87 MG cells
[10] = tested on: MDA-MB-468 breast cancer xenograft; set-up: species or system immune-deficient female nude mice; conditions: mouse, in vivo
[11] = tested on: HMEC cells; assay: cells; format: cell-based; conditions: Homo sapiens, 48 h
[12] = tested on: extracellular H2O2 in MDA-MB-468 cells; assay: Extracellular H2O2 measurement (Amplex Red assay); format: cell-based, human; conditions: MDA-MB-468 at maximum safe ascorbic acid dose, 48 h
[13] = tested on: MCF 10A cells; format: cell-based, human
[14] = tested on: MCF7 cells; assay: cells; format: cell-based, human
[15] = tested on: MCF7 cells
[16] = tested on: extracellular H2O2 in MCF 10A cells; assay: Extracellular H2O2 measurement (Amplex Red assay); format: cell-based, human; conditions: MCF 10A at maximum safe ascorbic acid dose, 48 h
[17] = tested on: MDA-MB-231 cells; assay: cells; format: cell-based, human
[18] = tested on: MDA-MB-468 cells; format: cell-based, human; remark: listed apart in the source
[19] = tested on: extracellular H2O2 in MCF7 cells; assay: Extracellular H2O2 measurement (Amplex Red assay); format: cell-based, human; conditions: 48 h

## O=C(O)CCCc1ccc(N(CCCl)CCCl)cc1 [Chlorambucil]
[1]
  IC50: 34.4 µM
[2]
  Fold Change: 1 fold
[2]; Homo sapiens, MDA-MB-468, 48 h
  IC50: 30.2 ± 2.3 µM
[2]; Homo sapiens, MDA-MB-468, read-out: IC50 in combination with Vitamin C Safe Dose
  IC50: 28.7 ± 2.4 µM

## O=C(OC1Cc2c(O)cc(O)cc2OC1c1cc(O)c(O)c(O)c1)c1cc(O)c(O)c(O)c1 (stereo not drawn) [EGCG]
[3]
  MSD (Maximum Safe Dose): 6.25 µM
[3]; Homo sapiens, MCF-10A, 48 h
  IC50: 28.5 ± 2.55 µM
[2]
  MSD (Maximum Safe Dose): 12.50 µM
  SI (Selectivity Index): 0.5
  SI of Prodrug Combined with Maximum Safety Dose of Pro-oxidant: 2
[2]; Homo sapiens, MDA-MB-468, 48 h
  IC50: 65 ± 3.45 µM

## COc1cc(/C=C/C(=O)N2CCC=CC2=O)cc(OC)c1OC [Piperlogumine]
[3]
  MSD (Maximum Safe Dose): 1.56 µM
[3]; Homo sapiens, MCF-10A, 48 h
  IC50: 4.91 ± 0.51 µM
[2]
  MSD (Maximum Safe Dose): 0.78 µM
  SI (Selectivity Index): 2
  SI of Prodrug Combined with Maximum Safety Dose of Pro-oxidant: 6
[2]; Homo sapiens, MDA-MB-468, 48 h
  IC50: 2.24 ± 0.05 µM

## CCCOC(=O)c1cc(O)c(O)c(O)c1 [Propyl Gallate]
[3]
  MSD (Maximum Safe Dose): 12.50 µM
[3]; Homo sapiens, MCF-10A, 48 h
  IC50: 51.4 ± 5.45 µM
[2]
  MSD (Maximum Safe Dose): 25.00 µM
  SI (Selectivity Index): 1
  SI of Prodrug Combined with Maximum Safety Dose of Pro-oxidant: 3
[2]; Homo sapiens, MDA-MB-468, 48 h
  IC50: 49.2 ± 1.83 µM

## O=c1c(O)c(-c2ccc(O)c(O)c2)oc2cc(O)cc(O)c12 [Quercetin]
[3]
  MSD (Maximum Safe Dose): 6.25 µM
[3]; Homo sapiens, MCF-10A, 48 h
  IC50: 19.6 ± 1.24 µM
[2]
  MSD (Maximum Safe Dose): 3.13 µM
[2]; Homo sapiens, MDA-MB-468, 48 h
  IC50: 15.8 ± 2.15 µM

## O=C1O[C@H]([C@@H](O)CO)C(O)=C1O [Vitamin C]
[4]
  extracellular H2O2 level: ~7 µM
[5]
  intracellular H2O2 level compared to untreated samples: significant threefold increase
[6]
  dose found to be safe: 1 mM
[7]
  Maximum Safe Dose (MSD): 1 mM
[7]; Homo sapiens, MDA-MB-436, 48 h
  IC50: 1390 ± 100 µM
[3]
  IC50: 4200 ± 400 µM
  Maximum Safe Dose (MSD): 1.25 mM
[8]
  Maximum Safe Dose (MSD): 0.3 mM and 0.30 mM
[8]; Homo sapiens, U-87 MG, 48 h
  IC50: 1000 µM
[9]
  dose found to be safe: 0.25 mM
[10]
  effect on tumor size: observable inhibitory effects on the tumor size
[11]
  IC50: 2670 ± 400 µM
[12]
  extracellular H2O2 level: around 10 μM
[13]
  dose found to be safe: 1 mM
[14]
  IC50: 970 ± 70 µM
  Maximum Safe Dose (MSD): 0.25 mM
[14]; Homo sapiens, MCF7, 48 h
  IC50: 1000 µM
[15]
  dose found to be safe: 0.25 mM
[16]
  extracellular H2O2 level: ~5 µM
[17]
  Maximum Safe Dose (MSD): 1 mM
[17]; Homo sapiens, MDA-MB-231, 48 h
  IC50: 2230 ± 300 µM
[2]
  Maximum Safe Dose (MSD): 1 mM and 1.00 mM
[18]
  observable DNA damage: did not show any observable DNA damage
[19]; MCF7, increasing mM ascorbic acid
  H2O2 generated (most substantial change): over 20 μM
[19]; MCF7 at maximum safe ascorbic acid dose
  extracellular H2O2 level: ~7 µM

## Cc1c(C)c2c(c(C)c1O)CCC(C)(CCCC(C)CCCC(C)CCCC(C)C)O2 (stereo not drawn) [Vitamin E]
[3]
  MSD (Maximum Safe Dose): 25.00 µM
[3]; Homo sapiens, MCF-10A, 48 h
  IC50: 376 ± 21.4 µM
[2]
  MSD (Maximum Safe Dose): 1.56 µM
  SI (Selectivity Index): 5
  SI of Prodrug Combined with Maximum Safety Dose of Pro-oxidant: 11
[2]; Homo sapiens, MDA-MB-468, 48 h
  IC50: 76.5 ± 6.62 µM

## CC1(C)CCC2=C(O1)c1ccccc1C(=O)C2=O [β-Lapachone]
[3]
  MSD (Maximum Safe Dose): 1.56 µM
[3]; Homo sapiens, MCF-10A, 48 h
  IC50: 3.42 ± 0.22 µM
[2]
  MSD (Maximum Safe Dose): 0.78 µM
  SI (Selectivity Index): 3
  SI of Prodrug Combined with Maximum Safety Dose of Pro-oxidant: 2
[2]; Homo sapiens, MDA-MB-468, 48 h
  IC50: 1.06 ± 0.17 µM

## Arsenic Trioxide
[3]
  MSD (Maximum Safe Dose): 1.56 µM
[3]; read-out: IC50
  IC50: 8.52 ± 0.4 µM
[2]
  MSD (Maximum Safe Dose): 0.79 µM
  SI (Selectivity Index): 1
  SI of Prodrug Combined with Maximum Safety Dose of Pro-oxidant: 5
[2]; read-out: IC50
  IC50: 6.27 ± 0.33 µM
